Data on 32 compounds can be found in patent US20260132127A1, “NOVEL SPIRO COMPOUND” (MITSUBISHI TANABE PHARMA CORPORATION, priority 2021, published 2026).

The target of the experiment is T1, human TRH-DE (Homo sapiens, UniProt Q9UKU6).
T1 construct: expressed in transfected cells; host or cells: Expi 293 cells (transient expression), membrane fraction
T1 sequence (Q9UKU6 1-1069): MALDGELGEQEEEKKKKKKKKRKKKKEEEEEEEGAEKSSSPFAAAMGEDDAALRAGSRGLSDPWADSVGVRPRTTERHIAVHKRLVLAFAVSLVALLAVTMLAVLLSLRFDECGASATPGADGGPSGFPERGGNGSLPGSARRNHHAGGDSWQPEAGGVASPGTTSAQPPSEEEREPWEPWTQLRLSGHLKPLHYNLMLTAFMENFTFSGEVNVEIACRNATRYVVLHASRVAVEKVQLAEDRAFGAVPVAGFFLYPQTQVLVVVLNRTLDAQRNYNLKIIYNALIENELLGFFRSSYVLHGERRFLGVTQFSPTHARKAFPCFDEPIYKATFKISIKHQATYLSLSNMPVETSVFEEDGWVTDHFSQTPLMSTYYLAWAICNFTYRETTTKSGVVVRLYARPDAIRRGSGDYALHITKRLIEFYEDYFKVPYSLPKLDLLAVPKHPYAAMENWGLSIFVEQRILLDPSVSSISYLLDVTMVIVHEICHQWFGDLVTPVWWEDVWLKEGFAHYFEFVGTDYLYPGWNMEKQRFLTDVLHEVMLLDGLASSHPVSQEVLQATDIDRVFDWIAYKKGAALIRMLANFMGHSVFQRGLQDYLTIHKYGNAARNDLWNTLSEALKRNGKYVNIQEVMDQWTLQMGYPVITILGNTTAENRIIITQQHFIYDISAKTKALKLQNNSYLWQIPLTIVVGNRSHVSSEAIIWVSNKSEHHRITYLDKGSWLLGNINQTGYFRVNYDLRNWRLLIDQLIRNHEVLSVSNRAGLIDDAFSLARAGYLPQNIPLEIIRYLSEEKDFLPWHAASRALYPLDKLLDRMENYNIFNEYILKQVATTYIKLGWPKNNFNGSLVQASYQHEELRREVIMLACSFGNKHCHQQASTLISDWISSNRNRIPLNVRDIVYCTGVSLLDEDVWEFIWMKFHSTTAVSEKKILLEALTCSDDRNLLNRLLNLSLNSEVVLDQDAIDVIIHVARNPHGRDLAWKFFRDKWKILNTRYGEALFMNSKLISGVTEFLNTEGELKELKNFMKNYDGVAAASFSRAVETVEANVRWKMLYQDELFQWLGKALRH
Briefly: TRH-DE inhibition test (RapidFire MS measurement of product Cyclo (His-Pro)). In kind it is biochemical. The note with it: membrane fraction of Expi 293 cells expressing human TRH-DE; 10 μM TRH substrate; room temperature, 2 hours; 16-point concentration test. The essentials: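 Membrane fraction from Expi 293 cells transiently expressing human TRH-DE, at 4 μg/ml in phosphate buffer pH 7.4 with 200 μM bacitracin, reacted with compound and 10 μM substrate for 2 h at room temperature. Cyclo(His-Pro) measured by RapidFire MS against an isotope internal standard. IC50 from 16-point curves.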
As usually defined, the IC50 is the point on the concentration scale where inhibition reaches its midpoint. The compound `C[C@@H]1CN(C)c2nc(C(F)(F)F)ccc2C(=O)N1C1CC2(C1)CN(S(=O)(=O)c1ccccc1F)C2` [Example 247, (3R)-4-[2-(2-fluorophenyl)sulfonyl-2-azaspiro[3.3]heptan-6-yl]-1,3-dimethyl-8-(trifluoromethyl)-2,3-dihydropyrido[2,3-e][1,4]diazepin-5-one] returned an IC50 of 2 nM. As for `CC1c2ccccc2N(C)C(=O)CN1C1CC2(C1)CN(S(=O)(=O)c1ccccc1F)C2` (centres unmarked) [Example 248], the IC50 amounted to 731 nM. As for `CCn1c2ccccc2c(=O)n1C1CC2(C1)CN(S(=O)(=O)c1ccccc1)C2` [Example 250, 2-[2-benzenesulfonyl-2-azaspiro[3.3]heptan-6-yl]-1-ethyl-indazol-3-one], the IC50 is 214 nM. With `C[C@@H]1CNc2nc(Cl)ccc2C(=O)N1C1CC2(C1)CN(S(=O)(=O)c1ccccc1F)C2` [Example 251, (3R)-8-chloro-4-[2-(2-fluorophenyl)sulfonyl-2-azaspiro[3.3]heptan-6-yl]-3-methyl-2,3-dihydro-1H-pyrido[2,3-e][1,4]diazepin-5-one] the figure was 1 nM. With `C[C@@H]1CNc2cc(Cl)cnc2C(=O)N1C1CC2(C1)CN(S(=O)(=O)c1ccccc1F)C2` [Example 253] the figure was 8 nM; with `C[C@@H]1CNc2cc(C(F)(F)F)cnc2C(=O)N1C1CC2(C1)CN(S(=O)(=O)c1ccccc1F)C2` [Example 254], 2 nM; with `C[C@@H]1CNc2ncccc2C(=O)N1C1CC2(C1)CN(S(=O)(=O)c1ccccc1F)C2` [Example 255], 7 nM.

Compound `C[C@@H]1CNc2ncc(C(F)(F)F)cc2C(=O)N1C1CC2(C1)CN(S(=O)(=O)c1ccccc1F)C2` [Example 256] displayed an IC50 of 3 nM. `C[C@@H]1CNc2ncc(C(F)(F)F)cc2C(=O)N1C1CC2(C1)CN(S(=O)(=O)c1ccccc1[N+](=O)[O-])C2` [Example 257] registered an IC50 of 61 nM. Against the preceding compound, the IC50 is about 20-fold higher. `C[C@@H]1CNc2nc(C3CC3)ccc2C(=O)N1C1CC2(C1)CN(S(=O)(=O)c1ccccc1F)C2` [Example 258, (3R)-8-cyclopropyl-4-[2-(2-fluorophenyl)sulfonyl-2-azaspiro[3.3]heptan-6-yl]-3-methyl-2,3-dihydro-1H-pyrido[2,3-e][1,4]diazepin-5-one] returned an IC50 of 1 nM. Under `Cc1nnc2n1CC[C@@H](C)N(C1CC3(C1)CN(S(=O)(=O)c1ccccc1F)C3)C2=O` [Example 260, (7R)-8-[2-(2-fluorophenyl)sulfonyl-2-azaspiro[3.3]heptan-6-yl]-3,7-dimethyl-6,7-dihydro-5H-[1,2,4]triazolo[4,3-a][1,4]diazepin-9-one] stands 97 nM; under `C[C@@H]1CCn2c(nnc2C2CC2)C(=O)N1C1CC2(C1)CN(S(=O)(=O)c1ccccc1F)C2` [Example 261], 28 nM; under `C[C@@H]1CCn2c(nnc2C(C)(C)C)C(=O)N1C1CC2(C1)CN(S(=O)(=O)c1ccccc1F)C2` [Example 262], 91 nM. Compound `C[C@@H]1CCn2c(nnc2-c2ccccc2)C(=O)N1C1CC2(C1)CN(S(=O)(=O)c1ccccc1F)C2` [Example 263] gave a half-inhibitory concentration (IC50) of 32 nM.

In turn, `Cc1nnc2n1C[C@@H](C)N(C1CC3(C1)CN(S(=O)(=O)c1ccccc1F)C3)C2=O` [Example 264] registered an IC50 of 459 nM.

In the case of `C[C@@H]1Cn2c(nnc2C2CC2)C(=O)N1C1CC2(C1)CN(S(=O)(=O)c1ccccc1F)C2` [Example 265], the IC50 amounted to 287 nM. With `CC1c2ccccc2C(=O)N1C1CC2(C1)CN(S(=O)(=O)c1ccccc1F)C2` (centres unmarked) [Example 266, 2-[2-(2-fluorophenyl)sulfonyl-2-azaspiro[3.3]heptan-6-yl]-3-methyl-isoindolin-1-one] the figure was 92 nM; with `CC1(O)c2cc(C(F)(F)F)cnc2C(=O)N1C1CC2(C1)CN(S(=O)(=O)c1ccccc1F)C2` (centres unmarked) [Example 275, 6-[2-(2-fluorophenyl)sulfonyl-2-azaspiro[3.3]heptan-6-yl]-5-hydroxy-5-methyl-3-(trifluoromethyl)pyrrolo[3,4-b]pyridin-7-one], 42 nM; with `CC1(O)c2ccccc2C(=O)N1C1CC2(C1)CN(S(=O)(=O)c1ccccc1F)C2` (centres unmarked) [Example 283, 2-[2-(2-fluorophenyl)sulfonyl-2-azaspiro[3.3]heptan-6-yl]-3-hydroxy-3-methyl-isoindolin-1-one], 67 nM. With `CC1c2cc(C(F)(F)F)cnc2C(=O)N1C1CC2(C1)CN(S(=O)(=O)c1ccccc1F)C2` (centres unmarked) [Example 290, 6-[2-(2-fluorophenyl)sulfonyl-2-azaspiro[3.3]heptan-6-yl]-5-methyl-3-(trifluoromethyl)-5H-pyrrolo[3,4-b]pyridin-7-one] the figure was 104 nM; with `CC1c2ccncc2C(=O)N1C1CC2(C1)CN(S(=O)(=O)c1ccccc1F)C2` (centres unmarked) [Example 296, 2-[2-(2-fluorophenyl)sulfonyl-2-azaspiro[3.3]heptan-6-yl]-1-methyl-1H-pyrrolo[3,4-c]pyridin-3-one], 419 nM. Under `C[C@@H]1COc2c(noc2Br)C(=O)N1C1CC2(C1)CN(S(=O)(=O)c1ccccc1F)C2` [Example 297, (6R)-3-bromo-7-[2-(2-fluorophenyl)sulfonyl-2-azaspiro[3.3]heptan-6-yl]-6-methyl-5,6-dihydroisoxazolo[3,4-f][1,4]oxazepin-8-one] stands 18 nM; under `C[C@@H]1Cn2c(Br)nc(C3CC3)c2C(=O)N1C1CC2(C1)CN(S(=O)(=O)c1ccccc1F)C2` [Example 298], 25 nM; under `C[C@@H]1CCn2c(C3CC3)nc(Cl)c2C(=O)N1C1CC2(C1)CN(S(=O)(=O)c1ccccc1F)C2` [Example 299], 33 nM. Turning to `CC1CC(F)(F)c2ncccc2C(=O)N1C1CC2(C1)CN(S(=O)(=O)c1ccccc1F)C2` (centres unmarked) [Example 300, 9,9-Difluoro-6-[2-(2-fluorophenyl)sulfonyl-2-azaspiro[3.3]heptan-6-yl]-7-methyl-7,8-dihydropyrido[3,2-c]azepin-5-one], inhibition was half-maximal at 168 nM (IC50). Under `CC1C=C(F)c2ncccc2C(=O)N1C1CC2(C1)CN(S(=O)(=O)c1ccccc1F)C2` (centres unmarked) [Example 301, 9-fluoro-6-[2-(2-fluorophenyl)sulfonyl-2-azaspiro[3.3]heptan-6-yl]-7-methyl-7H-pyrido[3,2-c]azepin-5-one] stands 91 nM; under `CC(=O)N1C[C@@H](C)N(C2CC3(C2)CN(S(=O)(=O)c2ccccc2F)C3)C(=O)c2ncccc21` [Example 302, (3R)-1-acetyl-4-[2-(2-fluorophenyl)sulfonyl-2-azaspiro[3.3]heptan-6-yl]-3-methyl-2,3-dihydropyrido[3,2-e][1,4]diazepin-5-one], 47 nM; under `CCC(=O)N1C[C@@H](C)N(C2CC3(C2)CN(S(=O)(=O)c2ccccc2F)C3)C(=O)c2ncccc21` [Example 303], 82 nM. Under `CCCC(=O)N1C[C@@H](C)N(C2CC3(C2)CN(S(=O)(=O)c2ccccc2F)C3)C(=O)c2ncccc21` [Example 304] stands 1070 nM; under `CC(C)C(=O)N1C[C@@H](C)N(C2CC3(C2)CN(S(=O)(=O)c2ccccc2F)C3)C(=O)c2ncccc21` [Example 305], 62 nM. `C[C@@H]1CN(C(=O)C2CC2)c2cccnc2C(=O)N1C1CC2(C1)CN(S(=O)(=O)c1ccccc1F)C2` [Example 306] came in with an IC50 of 56 nM. In turn, `COCC(=O)N1C[C@@H](C)N(C2CC3(C2)CN(S(=O)(=O)c2ccccc2F)C3)C(=O)c2ncccc21` [Example 307] showed an IC50 of 285 nM.
